1 molecule from US9404192B2, “Highly stable electrolytic water with reduced NMR half line width” (priority 2007, dated 2016) can be followed below.

This test concerns Reconstructed Human Epidermids (RHEs). The experiment in a line: trans-epithelial electrical resistance (TEER) testing. In kind it is cell-based. The conditions noted are these: SDS 0.1% solution on RHE, FIG. 3. The protocol:
The formulations described in Tables B-F were tested for their effect on trans-epithelial electrical resistance according to the following procedure.
1 ml of saline solution is directly applied on the tissue placed in a 6 well plate containing 4 ml of saline solution as well.
The instrument Millicell-ERS (range 0-20 kΩ) is placed with the two electrodes in the two chambers and the measure is recorded directly and reported in the laboratory note book.
Five measurements for each tissue have been done: because of the variability within the tissues the measurement done at t=0 has been taken as basal value and reference of each single tissue.
At the arrival the tissues have been placed in 6 well plates with maintenance medium (SkinEthic) for 2 hours before the TEER measurements.
The basal TEER value is measured on all the tissue as described in the method.
The tissues have been recovered in maintenance medium (1 ml) and the test items have been applied at the dose of 50 μl.
Tissues have been finally incubated at 37° C. in 5% CO2 incubator.
The tissues have been rinsed with saline solution and the second TEER measurement, corresponding to the 24 h exposure, has been performed.
The RHEs have been recovered in fresh maintenance medium (1 ml) for a 24 h post incubation time. […]

`CCCCCCCCCCCCOS(=O)(=O)[O-].[Na+]` [sodium dodecyl sulphate]: the TEER result is given as “strong decrease of TEER”.
